Patent US6335466B1, “Fluorinated amino polyhedral borate compounds” (Colorado State University Research Foundation, priority 2000, dated 2002)
Where “and” joins values, the source holds several entries; their conditions need not be identical. Equal entries are not always repeated.

Columns and labels:
[1] = Olefin polymerization catalyst activator test; conditions: 20 μmole Zr, Zr/A/Al 1/4/250, MAO; listed as C
From the text: All solvents used in synthesis and polymerization experiments were obtained when possible as anhydrous grade and further purified as described below. Diethyl ether, hexanes and toluene were obtained from Aldrich Chemical Company (Milwaukee, Wis.) in Sure Seal® bottles as anhydrous grade. Solvents were further purified by passing through columns packed with activated A2 alumina and Q-5 catalyst which had been reduced tbennally under hydrogen. Methylliium in aiethyl ether, zirconecene dichloride, pentamethylcyclopentadienyl zirconium dichloride and methylaluminoxane (10 wt. % in toluene) were obtained from Aldrich Chemical Company and used without further purification. Methyllithium was titrated with an aqueous HCl standard (Aldrich Chemical Company) against a phenolphthalein indicator in order to determine the concentration prior to use. Tris(perfluorophenyl)borate (i.e., B2 borate) was obtained as a research sample from Albermarle (Baton Rouge, La.) (Lot # 29779501-10) and used without further purification.
The solvent for polymerization experiments was 2,2,4-trimethylpentane (i.e., iso-octane) which was obtained from Aldrich Chemical Company in 18 L Stainless Steel Kilo Lab® Cylinders as anhydrous grade. The polymerization solvent was further purified by passing through columns packed with activated 13× molecular sieves and Q-5 catalyst. Periodic checks were performed on the water content of the solvent by Karl Fischer Columbmetric Titration and determined to contain 3 ppm or less water after purification. Solids were stored, weighed and transferred in glove box equipped with a catalyst train under dry nitrogen. Polymerization stock solutions and compositions were prepared in septum fitted bottles in a glove box. All solutions were freshly prepared for each set of evaluations.
All solutions were prepared in a glove box under dry nitrogen in a glass narrow mouth bottle fitted with a septum. This solution was prepared by the dissolution of 63 mg of Cp2ZrMe2 in 50 mL of dry, nitrogen degassed toluene. The complex was completely miscible in the solvent. […]

[2] = comparison species; cited from earlier work
[3] = Conductivity of glyme (DME) solutions; format: physicochemical
From the text: A calibrated Yellow Springs model 3403 conductivity cell (cell constant k=1.113) and a model 31 conductivity bridge were employed. The measurements were made in a nitrogen-filled glove box. […] The concentration dependence of the conductivity of a lithium salt in a dilute solution is expected to be linear. The conductivity of a 0.01 M glyme solution of LiB12F11NMe3 is therefore expected to be about 78 μS cm^−1. The conductivity of a 0.0050 M glyme solution LiB12F11NMe3 is approximately ten times higher than the conductivity of a 0.010 M glyme solution of lithium triflate (4 μS cm−1).
The conductivities of solutions of Li(Dd3NB12F11) and Li(Bn2HNB12F11) (the latter sample was contaminated with about 15% Li(BnH2NB12F11)) were measured using a similar procedure as that of Example 25. A calibrated Yellow Springs model 3403 conductivity cell (cell constant k=0.98 cm−1) and a Yellow Springs model 31 conductivity bridge was employed. The measurements were made in a nitrogen-filled glove box. The conductivities of glyme solutions of Li(Dd3NB12F11), Li(Bn2HNB12F11), and lithium salts of related anions are listed in Table 2.

[4] = Solubility in organic solvents and water; format: physicochemical
[5] = lithium salts, 0.0100 M DME solutions, 25° C., nitrogen atm.

In the case of `Fc1c(F)c(F)c(OB(Oc2c(F)c(F)c(F)c(F)c2F)Oc2c(F)c(F)c(F)c(F)c2F)c(F)c1F` [B2 borate, Tris(perfluorophenyl)borate], the “Final Rate C2H4 uptake” value [1] is reported as 0.7 g/m and 0.9 g/m and 1.3 g/m and 0.8 g/m, the “Max Exotherm” value [1] is reported as 1 °C and 2 °C and the “Max Rate C2H4 uptake” value [1] is reported as 26.3 g/m and 21.7 g/m and 16.3 g/m and 24.9 g/m and 31.3 g/m.
In the case of `S` [HS^−1], the “pKa value of selected acids” value [2] is given as 19.0.
For `F[P-](F)(F)(F)(F)F.[Li+]` [LiPF6], the conductivity [3, 5] was 73 μS cm−1.
For `CCCCN` [NH3Bu^+1], the “pKa value of selected acids” value [2] is given as 10.8.
For `CN` [NH3Me^+1], the “pKa value of selected acids” value [2] is given as 10.7.
With `CCCC[N+](CCCC)(CCCC)CCCC.F[B-](F)(F)F` [[NBu4][BF4]] the “solubility in water relative to [NBu4][H3NB12F11]” value [4] was “higher solubility”.
`O=S(=O)([O-])C(F)(F)F.[Li+]` [lithium triflate] showed a conductivity ([3]; 0.010 M glyme solution) of 4 μS cm^−1 and a conductivity [3, 5] of 4 μS cm−1.
